Laboratory results published in patent US12337003B2, “Pharmaceutical compositions for combination therapy” (Intercept Pharmaceuticals, Inc., priority 2015, dated 2025).

Columns and labels:
[1] = tested on: leukocyte extravasation signaling; test: Hepatic gene expression profiling (RNA sequencing, pathway analysis) in APOE*3Leiden.CETP mice; assay type: in vivo
Method: This experiment was performed to evaluate the effects of OCA and fenofibrate, alone or in combination, on the development of diet induced NASH and liver fibrosis in APOE*3Leiden.CETP transgenic mice. Hepatic gene expression profiling and subsequent pathway analysis were performed to determine whether the combination regulates novel genes not regulated by either monotherapy treatment, and/or more strongly regulates genes also impacted by the monotherapy.
Mice were fed a high fat chow (HFC) diet for […]. After 15 weeks on the HFC diet, HFC mice were matched into 7 groups based on age, body weight, plasma cholesterol and triglycerides after 4 h fasting. Mice were treated with of OCA and fenofibrate, alone or in combination beginning at week 15 and sacrificed at week 25 in an unfasted state. One week before sacrifice, mice were labeled with D20, by i.p. injection of a bolus of D20 and subsequent addition of 4% D20 to the drinking water. Plasma (EDTA) was obtained by heart puncture and stored at −70° C. The liver was weighed and 4 pieces of liver were isolated: 1 piece (medial lobe) was fixed in 10% formalin (for NASH and fibrosis histology) and 3 pieces (sinister lobe) were snap-frozen in liquid N2 and stored individually at −70° C.
Nucleic acid extraction was performed as described previously in detail (Verschuren et al., 2014). Briefly, total RNA was extracted from individual liver samples using glass beads and RNAzol (Campro Scientific, Veenendaal, The Netherlands). RNA concentration and quality was determined using the Fragment Analyzer (Advanced Analytical Technologies, USA) and the RNA 6000 Nano Lab-on-a-Chip kit and a Bioanalyzer 2100 (Agilent Technologies, Amstelveen, The Netherlands). All samples met the quality requirements and were used in the RNA sequencing procedure.
The NEBNext Ultra Directional RNA library Prep Kit for Illumina was used to process the samples. The sample preparation was performed according to the protocol “NEBNext Ultra Directional RNA Library Prep Kit for Illumina” (NEB #E7420S/L). Briefly, mRNA was isolated from total RNA using oligo-dT magnetic beads. After fragmentation of the mRNA, a cDNA synthesis was performed. This was used for ligation of sequencing adapters and PCR amplification of the resulting product. The quality and yield after sample preparation was measured with the Fragment Analyzer (Advanced Analytical Technologies, USA). The size of the resulting products was consistent with the expected size distribution (a broad peak between 300-500 bp).
Clustering and DNA sequencing using the Illumina […] was performed according manufacturer's protocols. Data was generated using single-end read sequencing protocol obtaining approx. 15 million reads per sample and 75 bp per read. Image analysis, base calling, and quality check was performed with the Illumina data analysis pipeline RTA v2.4.11 to generate the raw data (*.fastq-files).
The reads were mapped to the reference sequence Mus musculus GRCm38.p3 using a short read aligner based on Burrows-Wheeler Transform. The default mismatch rate of 2% (3 mismatches in a read of 150 bases) was used. Based on the mapped read locations in the alignment files (*.bam-files) the frequency of how often a read was mapped on a transcript was determined. The counts were saved to count-files, which served as input for downstream mRNA-seq differential expression analysis. The read counts were loaded into the DESeq package, a statistical package within the R platform. […]

[2] = tested on: fibrosis induced by common bile duct ligation in mice; test: Bile duct ligation (BDL) model, Sirius-red staining of liver sections; assay type: in vivo, C57BL/6 mice; conditions: mean ± SD, OCA 5 mg/kg and/or atorvastatin 10 mg/kg orally once daily day 0 to day 6
Method: This experiment was performed to evaluate the effects of OCA and atorvastatin alone, and in combination, on fibrosis induced by common bile duct ligation in mice.
Male C57BL/6 mice (6 weeks of age) were obtained from Japan SLC. The animals were maintained in a specific pathogen free facility under controlled conditions of temperature (23±2° C.), humidity (45±10%), lighting (12-hour artificial light and dark cycles; light from 8:00 to 20:00), and air exchange (air exchange rate: more than 40 times/hour). A high pressure (20±4 Pa) was maintained in the experimental room to prevent contamination of the facility. The animals were housed in KN-600 (Natsume Seisakusho, Japan) with a maximum of 6 mice per cage. […]
Viability, clinical signs and behavior were monitored daily. Body weight was recorded daily during the treatment period. Food consumption was measured twice weekly per cage during the treatment period. […]
To visualize collagen deposition, Bouin's-fixed left lateral liver sections were stained using picro-Sirius red solution (Waldeck, Germany). For quantitative analysis of the fibrosis area, bright field images of Sirius red-stained sections were captured around the central vein using a digital camera (DFC295; Leica, Germany) at 100-fold magnification, and the positive areas in 5 fields/section were measured using ImageJ software (National Institute of Health, USA). […]

[3] = tested on: kidney of a rat model of Type 1 diabetes; conditions: rat model of Type 1 diabetes (Wang 2010); cited from earlier work

CC[C@H]1[C@@H](O)[C@@H]2[C@H](CC[C@]3(C)[C@@H]([C@H](C)CCC(=O)O)CC[C@@H]23)[C@@]2(C)CC[C@@H](O)C[C@@H]12 [OCA, 3α,7α-dihydroxy-6α-ethyl-5β-cholan-24-oic acid]
number of uniquely regulated genes ([1]; Venn diagram, OCA 10 mg/kg, fenofibrate 10 mg/kg, combination): 109 | enrichment analysis of canonical (inflammatory) pathways ([1]; liver mRNA, OCA 10 mg/kg and/or low dose fenofibrate vs HFC): regulated several inflammatory processes | regulation of genes of leukocyte extravasation signaling (leukocyte and endothelial cells) ([1]; liver mRNA, OCA and/or low dose fenofibrate, relative to vehicle group): downregulates numerous genes | Sirius red-positive area (%) [2]: 2.06 ± 0.37% | inflammatory infiltrates in kidney [3]: inhibition of inflammatory infiltrates
